Measurements as given in patent US12144889B2, “Methods of treating allergic conjunctivitis” (OCULAR THERAPEUTIX, INC., priority 2020, dated 2024).

Columns and labels:
[1] = oral, cited from earlier work; for Relative Potency: with reference to cortisol
[2] = 25° C.; cited from earlier work
[3] = Solubility of dexamethasone in water / aqueous medium; type: physicochemical; conditions: aqueous medium such as the tear fluid
Source text: In certain embodiments of the present invention, dexamethasone is micronized and may have a D50 particle size of less than about 10 μm and/or a D99 particle size of less than about 50 μm. A specific suitable micronized dexamethasone for use in certain embodiments of the present invention is “Dexamethasone USP micronized” from Pfizer with a D90 particle size of equal to or less than about 5 μm (i.e., the volume portion of particles with a particle size of or below about 5 μm is 90%), and a D98 particle size of equal to or below about 10 μm (i.e., the volume portion of particles with a particle size of equal to or below about 10 μm is 98%). The “D” value such as in “D50” means that the indicated percentage by volume (such as 50 volume-% in D50 etc.) of all particles within the respective bulk material (which has a certain particle size distribution) has a particle size of or below the indicated value, e.g. a D50 particle size of below about 10 μm means that 50 volume-% of the particles have a particle size of or below about 10 μm. The particle size distribution can be commonly measured by methods known in the art, and includes sieving as well as laser diffraction methods. […]
It is believed that release of the glucocorticoid into the tear fluid is determined by the glucocorticoid's solubility in an aqueous environment. […]

| solubility [3] [mg/mL] | Structure (SMILES) | Equivalent Dose [1] [mg] | Relative Potency [1] | solubility in water [2] |
| --- | --- | --- | --- | --- |
| – | C[C@]12CCC(=O)C=C1CC[C@@H]1[C@@H]2[C@@H](O)C[C@@]2(C)[C@H]1CC[C@]2(O)C(=O)CO [Cortisol (Hydrocortisone), Cortisol] | 20 | 1 | – |
| < 0.1 | C[C@@H]1C[C@H]2[C@@H]3CCC4=CC(=O)C=C[C@]4(C)[C@@]3(F)[C@@H](O)C[C@]2(C)[C@@]1(O)C(=O)CO [Dexamethasone, 9-Fluor-11β,17,21-trihydroxy-16α-methyl-pregna-1,4-dien-3,20-dion] | 0.8 | – | approx. 89 mg/L |
| – | C[C@]12C=CC(=O)C=C1CC[C@@H]1[C@@H]2[C@@H](O)C[C@@]2(C)[C@H]1CC[C@]2(O)C(=O)CO [Prednisolone] | 5 | 4 | – |
| – | C[C@]12C=CC(=O)C=C1CC[C@H]1[C@@H]3C[C@@H](O)[C@](O)(C(=O)CO)[C@@]3(C)C[C@H](O)[C@@]12F [Triamcinolone] | 4 | 5 | – |
